Source: US11603368B2, “Fused thiophene derivatives and their uses” (ENYO PHARMA, priority 2018, dated 2023)
Counter-ions that a name gives are not always drawn.

The compounds below were run on H1N1 (influenza A/New Caledonia/20/99) (assay: Antiviral effect on A549 cells infected with H1N1). Conditions: Human A549 cells, MOI of 0.1, 48 h post-infection, MUNANA hydrolysis readout.
Assay type: cell-based, H1N1 A/New Caledonia/20/99 virus
Protocol: The antiviral effect of the compounds of the invention has been tested on A549 cell lines infected with H1N1 (influenza A/New Caledonia/20/99).
Human A549 cells (80,000 cells/well in a 96 well plate) were treated with a range of concentration of test molecules and immediately infected by H1N1 A/New Caledonia/20/99 virus (clinical isolate) at MOI of 0.1 in DMEM/1% Penicillin/streptomycin supplemented with 0.25 μg/ml TPCK trypsin (Sigma) and incubated at 37° C. in 5% CO2. 48 h post-infection, supernatants (25 μl) were collected and transferred into a 96-well black flat-bottom plate, mixed with 25 μl PBS with Ca++/Mg++(Thermo Fisher) and 50 μl of 2′-(4-Methylumbelliferyl)-α-D-N-acetylneuraminic acid sodium salt hydrate stock-solution (20 μM, MUNANA, Sigma). Plates were incubated 1 h at 37° C. and reaction is stopped by adding 100 μl of Stop Solution (glycine 0.1 M pH10.7/25% ethanol). The amount of fluorescent product released by MUNANA hydrolysis (4-MU) was measured in a Tecan spectrophotometer with excitation and emission wavelengths of 365 and 450 nm respectively.

Compound | IC50
CC(C)(C)C1CCc2c(sc(NC(=O)c3ccccc3F)c2C(=O)O)C1 (stereo not drawn) [#73] | 0.18 µM
CC(C)(C)C1CCc2c(sc(NC(=O)c3ccccc3)c2C(=O)O)C1 (stereo not drawn) [#67] | 0.0917 µM
CC(C)(C)C1CCc2c(sc(NC(=O)c3ccc(F)cc3)c2C(=O)O)C1 (stereo not drawn) [#237] | 0.211 µM
CC1CCCc2sc(NC(=O)c3ccccc3)c(C(=O)O)c21 (stereo not drawn) [#88] | 0.547 µM
Cc1ccccc1C(=O)Nc1sc2c(c1C(=O)O)CCC(C(C)(C)C)C2 (stereo not drawn) [#239] | 0.548 µM
CC(C)(C)C1CCc2c(sc(NC(=O)c3ccccc3C(F)(F)F)c2C(=O)O)C1 (stereo not drawn) [#100] | 0.873 µM
CC(C)(C)C1CCc2c(sc(NC(=O)c3ccc(F)cc3)c2C(=O)O)C1 (stereo not drawn) [#236] | 0.131 µM
CC(C)(C)C1CCc2c(sc(NC(=O)c3ccccc3C(F)(F)F)c2C(=O)O)C1 (stereo not drawn) [#109] | 1.2 µM
CC1CCCc2sc(NC(=O)c3ccccc3)c(C(=O)O)c21 (stereo not drawn) [#79] | 0.292 µM
O=C(Nc1sc2c(c1C(=O)O)CCC(c1ccccc1)C2)c1ccccc1 (stereo not drawn) [#47B] | 0.07 µM
Cc1ccccc1C(=O)Nc1sc2c(c1C(=O)O)CCC(C(C)(C)C)C2 (stereo not drawn) [#87] | 0.445 µM
CC(C)(C)C1CCc2c(sc(NC(=O)c3ccccc3)c2C(=O)O)C1 (stereo not drawn) [#66] | 0.0693 µM
CC(C)(C)C1CCc2c(sc(NC(=O)c3ccccc3F)c2C(=O)O)C1 (stereo not drawn) [#238] | 0.31 µM

Same assay, conditions: Influenza A virus, H1N1, A549, 48 h, Human A549 cells, MOI of 0.1, 48 h post-infection, MUNANA hydrolysis readout

Compound | IC50
COc1cccc(C(=O)Nc2sc3c(c2C(=O)O)CCC(C(C)(C)C)C3)c1 (stereo not drawn) [#2] | 0.07 µM
Cc1ccccc1C(=O)Nc1sc2c(c1C(=O)O)CCN(C(=O)OC(C)(C)C)C2 [#126] | 2.9 µM
CC(C)(C)C1CCc2c(sc(NC(=O)N3CCCCC3)c2C(=O)O)C1 (stereo not drawn) [#120] | 2.27 µM
COc1ccc(C(=O)Nc2sc3c(c2C(=O)O)CCN(c2ccc(F)cc2)C3)cc1OC [#113] | 1.37 µM
COc1ccc(C(=O)Nc2sc3c(c2C(=O)O)CC(C)(C)OC3)cc1OC [#119] | 2.2 µM
CC(C)(C)C1CCc2c(sc(NC(=O)Cc3ccccc3)c2C(=O)O)C1 (stereo not drawn) [#125] | 2.8 µM
Cn1cc(C(=O)Nc2sc3c(c2C(=O)O)CCC(C(C)(C)C)C3)cn1 (stereo not drawn) [#101] | 0.943 µM
O=C(Nc1sc2c(c1C(=O)O)CCCCC2)c1ccccc1 [#84] | 0.4 µM
O=C(Nc1sc2c(c1C(=O)O)CCC(c1ccccc1)C2)c1ccc(O)cc1 (stereo not drawn) [#49] | 0.41 µM
COC1CN(c2ccc(C(=O)Nc3sc4c(c3C(=O)O)CCCC4)cc2)C1 [#215] | 0.11 µM
O=C(Nc1sc2c(c1C(=O)O)CCN(c1ccc(F)cc1F)C2)c1ccccc1 [#56] | 0.15 µM
CC(C)(C)C1CCc2c(sc(NC(=O)c3ccccn3)c2C(=O)O)C1 (stereo not drawn) [#72] | 0.17 µM
CC1(C)Cc2c(sc(NC(=O)c3ccc(NC4CCOCC4)cc3)c2C(=O)O)C(C)(C)O1 [#232] | 1.38 µM
O=C(Nc1sc2c(c1C(=O)O)C(c1ccccc1)CCC2)c1ccc(OC(F)F)cc1 (stereo not drawn) [#108] | 1.17 µM
Cc1ccccc1N1CCc2c(sc(NC(=O)c3ccccc3)c2C(=O)O)C1 [#57] | 0.21 µM
O=C(Nc1sc2c(c1C(=O)O)CCCC2)c1ccc(NCC2CCOCC2)cc1 [#216] | 0.06 µM
Cc1ccccc1C(=O)Nc1sc2c(c1C(=O)O)CCC(C)C2 (stereo not drawn) [#86] | 0.41 µM
COc1ccc(C(=O)Nc2sc3c(c2C(=O)O)CCC(C(C)(C)C)C3)c(F)c1 (stereo not drawn) [#5] | 0.06 µM
CC(C)(C)C1CCc2c(sc(NC(=O)c3ccc(OC(F)(F)F)cc3)c2C(=O)O)C1 (stereo not drawn) [#8] | 0.0385 µM

Compound | IC50
CC(C)(C)C1CCc2c(sc(NC(=O)c3cccc(F)c3)c2C(=O)O)C1 (stereo not drawn) [#83] | 0.38 µM
Cc1ccccc1C(=O)Nc1sc2cc(C(C)(C)C)ccc2c1C(=O)O [#111] | 1.37 µM
COc1ccc(C(=O)Nc2sc3c(c2C(=O)O)CCN(c2ccc(F)cc2C)C3)c(F)c1 [#55] | 0.41 µM
COc1ccc(C(=O)Nc2sc3c(c2C(=O)O)CCC(c2ccccc2)C3)cc1OC (stereo not drawn) [#48] | 0.09 µM
COc1ccccc1C(=O)Nc1sc2c(c1C(=O)O)CCC(C(C)(C)C)C2 (stereo not drawn) [#104] | 1.05 µM
CC1CCCc2sc(NC(=O)c3ccc(OC(F)F)cc3)c(C(=O)O)c21 (stereo not drawn) [#75] | 0.21 µM
O=C(Nc1sc2c(c1C(=O)O)CCC2)c1ccc(NCC2CCOCC2)cc1 [#211] | 0.26 µM
COc1ccc(C(=O)Nc2sc3c(c2C(=O)O)CCC(C(C)(C)C)C3)nc1 (stereo not drawn) [#91] | 0.62 µM
COC1CN(c2ccc(C(=O)Nc3sc4c(c3C(=O)O)CC(C)(C)OC4(C)C)cc2)C1 [#217] | 0.51 µM
CC1CCCc2sc(NC(=O)c3ccc(N4CCOCC4)cc3)c(C(=O)O)c21 (stereo not drawn) [#70] | 0.145 µM
Cc1cc(F)ccc1N1CCc2c(sc(NC(=O)c3ccccc3)c2C(=O)O)C1 [#53] | 0.14 µM
CC(C)(C)C1CCc2c(sc(NC(=O)c3ccccc3C(F)(F)F)c2C(=O)O)C1 (stereo not drawn) [#97] | 0.8 µM
COc1ccc(C(=O)Nc2sc3c(c2C(=O)O)C(C)CCC3)c(F)c1 (stereo not drawn) [#76] | 0.218 µM
CC(C)(C)C(=O)Nc1sc2c(c1C(=O)O)CCC(c1ccccc1)C2 (stereo not drawn) [#106] | 1.1 µM
O=C(Nc1sc2c(c1C(=O)O)CCN(c1ccc(C(F)(F)F)cc1)C2)c1ccccc1 [#92] | 0.66 µM
O=C(Nc1sc2c(c1C(=O)O)CCC(c1ccccc1)C2)c1ccc(OCCO)cc1 (stereo not drawn) [#50] | 0.09 µM
Cc1cccc(C)c1C(=O)Nc1sc2c(c1C(=O)O)CCC(C(C)(C)C)C2 (stereo not drawn) [#118] | 1.95 µM
COCCNc1ccc(C(=O)Nc2sc3c(c2C(=O)O)CC(C)(C)OC3(C)C)cc1 [#234] | 0.98 µM
CC(C)(C)C1CCc2c(sc(NC(=O)c3ccc(OC(F)F)cc3)c2C(=O)O)C1 (stereo not drawn) [#7] | 0.0346 µM

Compound | IC50
Cc1ccoc1C(=O)Nc1sc2c(c1C(=O)O)CCC(C(C)(C)C)C2 (stereo not drawn) [#110] | 1.2 µM
COC(=O)CCCCCOc1ccc(C(=O)Nc2sc3c(c2C(=O)O)CCC(C(C)(C)C)C3)cc1 (stereo not drawn) [#172] | 0.51 µM
CC1(C)Cc2c(sc(NC(=O)c3ccccc3)c2C(=O)O)C(C)(C)O1 [#175] | 0.74 µM
Cc1ccccc1C(=O)Nc1sc2c(c1C(=O)O)CCC(c1ccccc1)C2 (stereo not drawn) [#45] | 0.338 µM
CC(C)(C)C1CCc2c(sc(NC(=O)c3ccc(F)cc3)c2C(=O)O)C1 (stereo not drawn) [#68] | 0.12 µM
CC(=O)Nc1ccc(C(=O)Nc2sc3c(c2C(=O)O)CCC(C(C)(C)C)C3)cc1 (stereo not drawn) [#93] | 0.66 µM
O=C(Nc1sc2c(c1C(=O)O)CCCC2)c1ccccc1 [#77] | 0.26 µM
Cc1ccccc1C(=O)Nc1sc2c(c1C(=O)O)CCCC2 [#95] | 0.723 µM
CC(C)(C)C1CCc2c(sc(NC(=O)c3ccc(OCCCN)cc3)c2C(=O)O)C1 (stereo not drawn) [#124, hydrochloride salt] | 2.7 µM
CC(C)(C)C1CCc2c(sc(NC(=O)c3ccncc3)c2C(=O)O)C1 (stereo not drawn) [#123] | 2.7 µM
CC1(C)Cc2c(sc(NC(=O)c3ccc(NCC4CCOCC4)cc3)c2C(=O)O)C(C)(C)O1 [#233] | 0.22 µM
COc1ccc(C(=O)Nc2sc3c(c2C(=O)O)CCC(C(C)(C)C)C3)c(F)c1F (stereo not drawn) [#6] | 0.09 µM
O=C(Nc1sc2c(c1C(=O)O)CCC(c1ccc(O)cc1)C2)c1ccccc1 (stereo not drawn) [#122] | 2.37 µM
CC1(C)Cc2c(sc(NC(=O)c3ccccc3)c2C(=O)O)CO1 [#116] | 1.7 µM
CC(C)(C)OC(=O)NCCCOc1ccc(C(=O)Nc2sc3c(c2C(=O)O)CCC(C(C)(C)C)C3)cc1 (stereo not drawn) [#11] | 0.14 µM
Cc1ccccc1C(=O)Nc1sc2c(c1C(=O)O)CCN(CC(C)C)C2 [#129, formate salt] | 16.6 µM
CC(C)(C)C1CCc2c(sc(NC(=O)c3ccc(OCCO)cc3)c2C(=O)O)C1 (stereo not drawn) [#12] | 0.45 µM
COCCNc1ccc(C(=O)Nc2sc3c(c2C(=O)O)CCC3)cc1 [#231] | 0.89 µM
